From paper PMC4809600, “The Influence of Chronic Wound Extracts on Inflammatory Cytokine and Histatin Stability” (PLoS ONE, 2016)

Columns and labels:
[1] = Stability in PBS, capillary zone electrophoresis; assay type: physicochemical; details: 1 mg/ml in PBS mixed 1:1 with PBS, 37°C, 24 h, CZE, UV 200 nm, ratio to imidazole internal standard, 0 h = 100%
Description: To determine the stability of the different peptides in CWE, histatins and cytokines were dissolved in PBS at 1 mg/ml. Histatins and cytokines were incubated in a 1:1 ratio with (i) PBS, (ii) CWE in PBS, or (iii) CWE in PBS containing PIC, in a total volume of 25 μl. Imidazole (Sigma-Aldrich) was added as an internal standard, with a final concentration of 100 μg/ml. The mixtures were incubated at 37°C, and samples were taken at 0, 24, 48, 72 and 96 h. For histatins containing mixtures, additional samples were taken after 2, 4, 8 and 16 h of incubation.
The samples were analyzed with a BioFocus 2000 capillary zone electrophoresis system (Bio-Rad Laboratories, Hercules, CA, USA) equipped with an uncoated fused-silica capillary of internal diameter 50 μm and a length of 24 cm. Samples were loaded by pressure injection (5 psi/sec). Separation was performed at 10 kV (cathode at the detector side) at 20°C using 0.1 M phosphate buffer (pH 2.5) as electrolyte and monitored continuously at 200 nm. Peaks were quantified with the BioFocus Integrator software. In order to quantify the percentage of intact peptides remaining after incubation with CWE, the ratios of histatins, rhIL-6 or rhCXCL8 to internal standard was set at 100% at 0h, and the ratios at the other incubation time points were related to this.

[2] = Stability in chronic wound extracts (CWE), capillary zone electrophoresis; assay type: in vitro ADME, human; details: 37°C, CZE; for Percentage intact, CWE 2h / Percentage intact, CWE 4h / Percentage intact, CWE 8h / Percentage intact, CWE 16h / Percentage intact, CWE 24h / Percentage intact, CWE 48h / Percentage intact, CWE 72h / Percentage intact, CWE 96h: 1 mg/ml in PBS mixed 1:1 with CWE (1 mg/ml protein, pool of 5 donors) in PBS, UV 200 nm, ratio to imidazole
Summary of the method: (§1)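 Peptides or cytokines (1 mg/ml stock) mixed 1:1 with PBS or pooled chronic-wound extract (1 mg/ml protein, three pools of five donors), ±protease inhibitor cocktail, at 37 °C for up to 96 h. Analyzed by capillary zone electrophoresis (pH 2.5 phosphate, 200 nm), with peak ratio to imidazole standard relative to 0 h as % intact.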

[3] = Stability in CWE with protease inhibitor cocktail (PIC), capillary zone electrophoresis; assay type: in vitro ADME, human; details: 37°C, CZE, 0 h = 100%; for Percentage intact, CWE + PIC 2h / Percentage intact, CWE + PIC 4h / Percentage intact, CWE + PIC 8h / Percentage intact, CWE + PIC 16h / Percentage intact, CWE + PIC 24h / Percentage intact, CWE + PIC 48h / Percentage intact, CWE + PIC 72h / Percentage intact, CWE + PIC 96h: 1 mg/ml in PBS mixed 1:1 with CWE (1 mg/ml protein, pool of 5 donors) in PBS containing PIC (final 1:140 v/v), ratio to imidazole
Summary of the method: as §1

Substance: cyclo(DNLPETGGDSHEKRHHGYRRKFHEKHHSHREFPFYGDYGSNYLY) [cHst1]
- Percentage intact, PBS 24h ([1]; experiment 1 of 3): 91.5758%
- Percentage intact, PBS 24h ([1]; experiment 2 of 3): 95.461%
- Percentage intact, PBS 24h ([1]; experiment 3 of 3): 100.575%
- Percentage intact, CWE 2h ([2]; 0 h = 100%, experiment 1 of 3): 94.125%
- Percentage intact, CWE 2h ([2]; 0 h = 100%, experiment 2 of 3): 97.8952%
- Percentage intact, CWE 2h ([2]; 0 h = 100%, experiment 3 of 3): 100%
- Percentage intact, CWE 4h ([2]; 0 h = 100%, experiment 1 of 3): 84.7219%
- Percentage intact, CWE 4h ([2]; 0 h = 100%, experiment 2 of 3): 88.931%
- Percentage intact, CWE 4h ([2]; 0 h = 100%, experiment 3 of 3): 83.8816%
- Percentage intact, CWE 8h ([2]; 8 h, 0 h = 100%, experiment 1 of 3): 81.3497%
- Percentage intact, CWE 8h ([2]; 8 h, 0 h = 100%, experiment 2 of 3): 83.9314%
- Percentage intact, CWE 8h ([2]; 8 h, 0 h = 100%, experiment 3 of 3): 78.1579%
- Percentage intact, CWE 16h ([2]; 0 h = 100%, experiment 1 of 3): 71.6467%
- Percentage intact, CWE 16h ([2]; 0 h = 100%, experiment 2 of 3): 74.8159%
- Percentage intact, CWE 16h ([2]; 0 h = 100%, experiment 3 of 3): 54.5266%
- Percentage intact, CWE 24h ([2]; 24 h, 0 h = 100%, experiment 1 of 3): 54.5627%
- Percentage intact, CWE 24h ([2]; 24 h, 0 h = 100%, experiment 2 of 3): 58.7294%
- Percentage intact, CWE 24h ([2]; 24 h, 0 h = 100%, experiment 3 of 3): 52.1934%
- Percentage intact, CWE 48h ([2]; 0 h = 100%, experiment 1 of 3): 29.9428%
- Percentage intact, CWE 48h ([2]; 0 h = 100%, experiment 2 of 3): 34.7264%
- Percentage intact, CWE 48h ([2]; 0 h = 100%, experiment 3 of 3): 26.5123%
- Percentage intact, CWE 72h ([2]; 0 h = 100%, experiment 1 of 3): 20.4492%
- Percentage intact, CWE 72h ([2]; 0 h = 100%, experiment 2 of 3): 21.8694%
- Percentage intact, CWE 72h ([2]; 0 h = 100%, experiment 3 of 3): 20.7179%
- Percentage intact, CWE 96h ([2]; 0 h = 100%, experiment 1 of 3): 15.3884%
- Percentage intact, CWE 96h ([2]; 0 h = 100%, experiment 2 of 3): 19.0259%
- Percentage intact, CWE 96h ([2]; 0 h = 100%, experiment 3 of 3): 11.1869%
- remaining at 8 h, 0.5 mg/ml ([2]; human, chronic wound extracts (CWE), 1 mg/ml in PBS mixed 1:1 with CWE (1 mg/ml protein, pools of 5 donors), 8 h, 0 h = 100%, mean of 3 independent experiments, read-out: Original amount of peptide remaining intact after 8 h in CWE): 81%
- remaining at 24 h, 0.5 mg/ml ([2]; human, chronic wound extracts (CWE), 1 mg/ml in PBS mixed 1:1 with CWE (1 mg/ml protein, pools of 5 donors), 24 h, 0 h = 100%, mean of 3 independent experiments, read-out: Original amount of peptide remaining intact after 24 h in CWE): 55%
- metabolised at 8 h, 0.5 mg/ml ([2]; human, chronic wound extracts (CWE), incubation with chronic wound extracts, 8 h, read-out: Breakdown (degradation) in CWE in 8 h): ~20%
- Percentage intact, CWE + PIC 2h ([3]; experiment 1 of 3): 89.1635%
- Percentage intact, CWE + PIC 2h ([3]; experiment 2 of 3): 89.9717%
- Percentage intact, CWE + PIC 2h ([3]; experiment 3 of 3): 92.8798%
- Percentage intact, CWE + PIC 4h ([3]; experiment 1 of 3): 81.2396%
- Percentage intact, CWE + PIC 4h ([3]; experiment 2 of 3): 77.3258%
- Percentage intact, CWE + PIC 4h ([3]; experiment 3 of 3): 92.4896%
- Percentage intact, CWE + PIC 8h ([3]; experiment 1 of 3): 74.181%
- Percentage intact, CWE + PIC 8h ([3]; experiment 2 of 3): 79.1445%
- Percentage intact, CWE + PIC 8h ([3]; experiment 3 of 3): 86.6559%
- Percentage intact, CWE + PIC 16h ([3]; experiment 1 of 3): 65.982%
- Percentage intact, CWE + PIC 16h ([3]; experiment 2 of 3): 74.0107%
- Percentage intact, CWE + PIC 16h ([3]; experiment 3 of 3): 77.3109%
- Percentage intact, CWE + PIC 24h ([3]; 24 h, experiment 1 of 3): 76.8799%
- Percentage intact, CWE + PIC 24h ([3]; 24 h, experiment 2 of 3): 76.3765%
- Percentage intact, CWE + PIC 24h ([3]; 24 h, experiment 3 of 3): 70.9573%
- Percentage intact, CWE + PIC 48h ([3]; experiment 1 of 3): 68.226%
- Percentage intact, CWE + PIC 48h ([3]; experiment 2 of 3): 72.203%
- Percentage intact, CWE + PIC 48h ([3]; experiment 3 of 3): 63.9246%
- Percentage intact, CWE + PIC 72h ([3]; experiment 1 of 3): 63.1229%
- Percentage intact, CWE + PIC 72h ([3]; experiment 2 of 3): 65.5213%
- Percentage intact, CWE + PIC 72h ([3]; experiment 3 of 3): 53.9233%
- Percentage intact, CWE + PIC 96h ([3]; experiment 1 of 3): 57.543%
- Percentage intact, CWE + PIC 96h ([3]; experiment 2 of 3): 57.4907%
- Percentage intact, CWE + PIC 96h ([3]; experiment 3 of 3): 51.0863%
- remaining at 24 h, 0.5 mg/ml ([3]; human, with protease inhibitor cocktail (PIC), CWE with protease inhibitor cocktail (final 1:140 v/v), 24 h, mean of 3 independent experiments, read-out: Remaining fraction of intact peptide after 24 h in CWE + PIC): 74%
